Common to all, as to format: cell-based
For assay [1], the target named is T1, KRAS G12D (Homo sapiens, UniProt P01116, G12D). The assay can be described thus: Degradation of KRas G12D in AsPC-1 cells, Western blot. Details: endogenous in cells; host or cells: AsPC-1 (ATCC CRL-1682). How it is done: This Example illustrates that the compounds presented herein degrade KRAS G12D.
AsPC-1 cells (ATCC CRL-1682) expressing G12D were grown in RPMI-1640 medium supplemented with 10% fetal bovine serum, and Penicillin/Streptomycin. Cell were plated in 6-well tissue culture plates at a density of 1 million cells/well and allowed to attach for overnight. Diluted compounds were then added in a final concentration of 0.2% DMSO. After 24 hour treatment, the medium was removed, and the plate was washed three times with ice-cold PBS. 50ul of the RIPA cell lysis buffer (ThermoFisher 89901) supplemented with protease inhibitor (Roche 4693116001) and Phosphatase Cocktail A and B inhibitor (Bimake B15002; Bimake Houston TX) was added to each well, the adherent cells were scratched off, and transferred into pre-cold centrifuge tubes. After vigorous vortex, the tubes were incubated on ice for 30 minutes, centrifuged 14,000 rpm for 10 min at 4° C., and the supernatant were transferred into fresh tubes kept on ice. The protein concentration of the supernatant was determined with bicinchoninic acid method (BCA) (ThermoFisher 23227). Samples were prepared to the final concentration of 30ug in 20ul using NuPAGE LDS Sample Buffer (Invitrogen NP0007), NuPAGE Sample Reducing Agent (Invitrogen NP0009), and RIPA cell lysis buffer, and boiled at 95° C. for 15 minutes in water bath.
The levels of KRAS protein and phosphorylated ERK1/2 were determined by Western blotting. 20 μL of protein sample mixture was loaded into each well of 1.5 mm 4-12% Bis-Tris gel (Invitrogen NP0335), and run at 80V in stacking gel and 120 V in separating gel for about 2 h in MOPS running buffer (Invitrogen NP0001). The gel was transferred to the membrane (20V, 7 min) with Invitrogen iBlot2, and blocked with Li-Cor blocking buffer (LI-COR 927-60001; Li-Cor Biotechnology, Lincoln NE) for at least 1 h at room temperature. Primary antibodies diluted in the blocking buffer were added and incubated at 4° C. overnight. As the primary antibodies, KRAS (Proteintech 12063-1-AP), G12D Mutant Specific KRAS (Cell Signaling Technology 14429S), ERKI1/2 (Cell Signaling Technology 4695S), Phospho-ERKI1/2 (Cell Signaling Technology 4370S), and GAPDH (Millipore MAB374) were used. The membrane was washed 4 times with TBST (0.10% Tween20®; ThermoFisher 28360) for 5 minutes at room temperature, then incubated with Li-Cor anti-rabbit-800 (LI-COR 926-68070) and anti-mouse-680 (LI-COR-926-32211) diluted in Li-Cor blocking buffer with the ratio of 1:15,000 to visualize the primary antibodies for 1 hour at room temperature. Then membrane was washed 4 times with TBST (0.1% Tween20) 5 minutes. The signal intensities of bands were quantified by Li-Cor Odyssey CLX.
The KRas and phosphor-ERK1/2 signals were normalized to the GAPDH signal for each lane and percent of DMSO values were calculated to determine the degradation of KRas and the inhibition of ERK1/2 phosphorylation upon the compound treatment.
Background: In western blotting, separated proteins are transferred to a membrane and probed.

Another assay addresses T2, WT KRAS (Homo sapiens, UniProt P01116).
T2 construct: endogenous in cells; host or cells: HT-29 (ATCC HTB-38)
Kind of assay: Degradation of KRAS wild type (WT) in HT-29 cells, Western blot. The note with it: HT-29 cell line, after 24 h treatment (FIG. 12). As for the experimental part: This Example illustrates that embodiments of the present application degrade KRAS WT
HT-29 cells (ATCC HTB-38) expressing WT KRAS were grown in McCoy's 5a medium modified (ATCC cat #30-2007) supplemented with 10% fetal bovine serum, and Penicillin/Streptomycin. Cell were plated in 6-well tissue culture plates at a density of 1 million cells/well and allowed to attach for overnight. Diluted compounds were then added in a final concentration of 0.2% DMSO. After 24 hour treatment, the medium was removed, and the plate was washed three times with ice-cold PBS. 50ul of the RIPA cell lysis buffer (ThermoFisher 89901) supplemented with protease inhibitor (Roche 4693116001) and Phosphatase Cocktail A and B inhibitor (Bimake B15002; Bimake Houston TX) was added to each well, the adherent cells were scratched off, and transferred into pre-cold centrifuge tubes. […] The protein concentration of the supernatant was determined with bicinchoninic acid method (BCA) (ThermoFisher 23227). […]
The levels of KRAS protein were determined by Western blotting. […] The signal intensities of bands were quantified by Li-Cor Odyssey CLX.
The KRAS signals were normalized to the GAPDH signal for each lane and percent of DMSO values were calculated to determine the degradation of KRAS upon the compound treatment.

The target in assay [2] is T1, KRAS G12D. Kind of assay: Degradation of KRas G12D in AsPC-1 cells, Western blot. Details: endogenous in cells; host or cells: AsPC-1 (ATCC CRL-1682). The following applies: ASPC-1 cell line after 24 h treatment (FIG. 11); read-out: KRAS wild type degradation DC50.

Read-outs that look alike come from different tables or passages of the source.

This note sets out measurements from patent publication US20240293558A1, “KRAS INHIBITOR CONJUGATES” (Erasca, Inc., priority 2021, published 2024).

T1 sequence (P01116 1-188 isoform P01116-2 G12D): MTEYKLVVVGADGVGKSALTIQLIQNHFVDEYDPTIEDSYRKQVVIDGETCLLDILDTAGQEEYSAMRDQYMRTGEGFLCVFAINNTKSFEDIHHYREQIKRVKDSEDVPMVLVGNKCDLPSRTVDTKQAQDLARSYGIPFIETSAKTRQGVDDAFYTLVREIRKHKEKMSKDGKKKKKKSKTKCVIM
T2 sequence (P01116 1-188 isoform P01116-2): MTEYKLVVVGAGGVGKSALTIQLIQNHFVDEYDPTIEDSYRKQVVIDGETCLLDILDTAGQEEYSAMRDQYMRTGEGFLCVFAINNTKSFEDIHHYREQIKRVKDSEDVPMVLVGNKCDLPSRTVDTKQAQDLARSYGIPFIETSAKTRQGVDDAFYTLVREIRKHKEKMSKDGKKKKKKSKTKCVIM

Usually Dmax stands for the largest share of the target that was removed. A higher Dmax goes with a fuller loss of target. Usually DC50 stands for the midpoint of the concentration-degradation curve. Compound `Cc1ncsc1-c1ccc([C@H](C)NC(=O)[C@@H]2C[C@@H](O)CN2C(=O)[C@@H](NC(=O)CCOCCCN2CCCC2COc2nc(N3CC4CCC(C3)N4)c3cc(Cl)c(-c4ccc(F)c5sc(N)c(C#N)c45)c(F)c3n2)C(C)(C)C)cc1` (stereo partly drawn) [Example 8, (2S,4R)-1-[(2S)-2-[3-[3-[2-[[7-(2-amino-3-cyano-7-fluoro-benzothiophen-4-yl)-6-chloro-4-(3,8-diazabicyclo[3.2.1]octan-3-yl)-8-fluoro-quinazolin-2-yl]oxymethyl]pyrrolidin-1-yl]propoxy]propanoylamino]-3,3-dimethyl-butanoyl]-4-hydroxy-N-[(1S)-1-[4-(4-methylthiazol-5-yl)phenyl]ethyl]pyrrolidine-2-carboxamide] yielded a Dmax at KRAS G12D [1] (ASPC1, AsPc-1 cell line after 24 h treatment) of 95%. In addition, the “KRAS G12D degradation (Western blot), result in words” value at KRAS G12D [1] (AsPC-1 cells, FIGS. 1-5) was “Favorable results”. The DC50 on KRAS G12D [1] (AsPc-1 cell line after 24 h treatment) came to 71 nM.

`C[C@H](NC(=O)[C@@H]1C[C@@H](O)CN1C(=O)[C@@H](NC(=O)CCOCCCN1CCC[C@H]1COc1nc(N2CC3CCC(C2)N3)c2cc(C(F)(F)F)c(-c3ccc(F)c4sc(N)c(C#N)c34)c(F)c2n1)C(C)(C)C)c1ccc(-c2c(F)cccc2F)cc1` (single isomer, unassigned) [Example 20]: the results for the DC50 on WT KRAS and on KRAS G12D [2] were 426 nM and 8.2 nM, respectively.
